Assays:
[1] = tested on: MCM2, CDK4, Cyclin D1, P21; experiment: Western Blot of tumor body cyclin in tumor bearing nude mice; format: in vivo, BALB/c nude mice; conditions: nude mouse tumor body, compared to the Control group
Source text: The expression of nude mice tumor body cyclin and EMT related proteins in tumor bearing nude mice after intervention with DDP, CA, BDMC, and combined administration was shown in FIG. 29. In the figure, 1 represented the Control group; 2 represented the DDP group; 3 represented the CA group; 4 represented the BDMC group; and 5 represented the CA+BDMC group.

[2] = tested on: CDK4, Cyclin D1, P21 in Hey cells; experiment: Expression of cell cycle related proteins in cells; format: cell-based, human
[3] = tested on: SKOV3 ovarian cancer cells; experiment: Colony formation with MCM2 knockdown or overexpression; format: cell-based, human
Experimental: (§1) SKOV3 and Hey ovarian cancer cells in logarithmic growth phase were knocked down with MCM2 (Control group, sh-NC group, sh-MCM2 group) and overexpressed with MCM2 (Control group, OE-NC group, OE-MCM2 group). The original culture medium was discarded, washed with PBS buffer, and digested with 0.1% trypsin. A corresponding culture medium was added to prepare a cell suspension. Cells were counted using a hemocytometer and a cell concentration was quantified at 10^3 cells/mL. 1500 μL of each well was inoculated into a 6 well plate, with 3 parallel wells in each group, and incubated in a 37° C. incubator containing 5% CO2 for 12 days. The medium was changed every three days. After the cultivation time was over, the six well plate was taken out, and the original culture medium was poured out. An appropriate amount of 4% paraformaldehyde was added to each well and fixed for 30 minutes. The plate was washed twice with a PBS buffer after pouring out the paraformaldehyde, an appropriate amount of 1% crystal violet solution was added for staining for 10 minutes, the crystal violet solution was poured out, and the plate was washed twice with PBS. Photos were taken, and the number of cell clones formed was counted. After knocking down MCM2 on the SKOV3 and Hey ovarian cancer cells and intervening with CA, BDMC, and combination administration, the results were shown in FIGS. 17A-17B. In FIGS. 17A-17B, A represented the formation of SKOV3 cell clones; and B represented the formation of Hey cell clones. Compared with the sh-NC group, #P<0.05, ##P<0.01; compared with the sh-NC+CA+BDMC group, &P<0.05, &&P<0.01; and ** P<0.01. In FIGS. 18A-18B, A represented the formation of SKOV3 cell clones; and B represented the formation of Hey cell clones. Compared with the OE-NC group, #P<0.05, ##P<0.01; compared with the OE-NC+CA+BDMC group, &P<0.05, &&P<0.01; and *P<0.05; and compared with the OE-MCM2+CA+BDMC group, ΔP<0.05, ΔΔP<0.01; and *P<0.05, ** P<0.01.

Hey ovarian cancer cells = experiment: as above; format: cell-based, human
Experimental: as §1

[4] = tested on: MCM2, CDK4, Cyclin D1, P21; experiment: Immunohistochemical assay of tumor body cell cycle related proteins in tumor bearing nude mice; format: in vivo, BALB/c nude mice; conditions: nude mouse tumor body, compared to the Control group
Experimental: The immunohistochemistry of tumor body cyclin in tumor bearing nude mice after intervention with DDP, CA, BDMC, and combined administration was shown in FIG. 28. The image was magnified by 400×, with a scale of 10 μM. The expression of MCM2, CDK4, and Cyclin D1 proteins in the CA group, BDMC group, and CA+BDMC group decreased compared to the Control group; and the expression of MCM2, CDK4, and Cyclin D1 proteins in the CA+BDMC group decreased compared to the CA group and BDMC group. The expression of P21 protein in the CA group, BDMC group, and CA+BDMC group increased compared to the Control group; and the expression of P21 protein in the CA+BDMC group increased compared to the CA group and BDMC group.

[5] = tested on: E-cadherin, N-cadherin, Vimentin; experiment: Western Blot of tumor body EMT related proteins in tumor bearing nude mice; format: in vivo, BALB/c nude mice; conditions: nude mouse tumor body, compared to the Control group
Source text: The expression of EMT related proteins was shown in FIG. 30: (1) represented the Control group; (2) represented the DDP group; (3) represented the CA group; (4) represented the BDMC group; and (5) represented the CA+BDMC group.

[6] = Hey OE-MCM2 cells (MCM2 overexpression), vs OE-MCM2 group
[7] = Hey OE-NC cells (empty vector), vs OE-NC group
[8] = Hey sh-MCM2 cells (MCM2 knockdown), vs sh-MCM2 group
[9] = Hey sh-NC cells (empty vector), vs sh-NC group

COc1ccc(-c2coc3cc(O)ccc3c2=O)cc1O [CA, calycosin]
expression of CDK4 protein (Western Blot) [1]: significantly decreased
expression of Cyclin D1 protein (Western Blot) [1]: significantly decreased
expression of MCM2 protein (Western Blot) [1]: significantly decreased
expression of P21 protein (Western Blot) [1]: significantly increased
expression of CDK4 [2, 6]: no significant change
expression of Cyclin D1 [2, 6]: no significant change
expression of P21 [2, 6]: no significant change
expression of CDK4 [2, 7]: significantly decreased
expression of Cyclin D1 [2, 7]: significantly decreased
expression of P21 [2, 7]: significantly increased
expression of CDK4 [2, 8]: no significant change
expression of Cyclin D1 [2, 8]: no significant change
expression of P21 [2, 8]: no significant change
expression of CDK4 [2, 9]: significantly decreased
expression of Cyclin D1 [2, 9]: significantly decreased
expression of P21 [2, 9]: significantly increased
number of plaques formed by cloning ([3]; SKOV3 OE-MCM2 cells (MCM2 overexpression), vs OE-MCM2 group): no significant change
number of plaques formed by cloning ([3]; SKOV3 OE-NC cells (empty vector), vs OE-NC group): significantly reduced
number of plaques formed by cloning ([3]; SKOV3 sh-MCM2 cells (MCM2 knockdown), vs sh-MCM2 group): no significant change
number of plaques formed by cloning ([3]; SKOV3 sh-NC cells (empty vector), vs sh-NC group): significantly reduced
number of plaques formed by cloning (Hey ovarian cancer cells; [6]): no significant change
number of plaques formed by cloning (Hey ovarian cancer cells; [7]): significantly reduced
number of plaques formed by cloning (Hey ovarian cancer cells; [8]): no significant change
number of plaques formed by cloning (Hey ovarian cancer cells; [9]): significantly reduced
expression of CDK4 protein (immunohistochemistry) [4]: decreased
expression of Cyclin D1 protein (immunohistochemistry) [4]: decreased
expression of MCM2 protein (immunohistochemistry) [4]: decreased
expression of P21 protein (immunohistochemistry) [4]: increased
expression of E-cadherin protein (Western Blot) [5]: significantly increased
expression of N-cadherin protein (Western Blot) [5]: significantly decreased
expression of Vimentin protein (Western Blot) [5]: significantly decreased

From patent US20250235499A1, “ANTI-OVARIAN CANCER PHARMACEUTICAL COMPOSITION AND ACTION TARGET THEREOF” (Zhejiang Chinese Medical University, priority 2024, published 2025)
